In data set [1] the test system is Plasmodium falciparum. Nature of the data set: Antimalarial activity against chloroquine-sensitive Plasmodium falciparum 3D7 infected in human type A-positive red blood cells assessed as growth inhibition after 72 hrs by spectrophotometrically. The class given is functional, organism-based. The conditions noted are these: 3D7, 72 h.
For data set [2], the system named is Plasmodium falciparum. Nature of the data set: Antimalarial activity against Plasmodium falciparum Dd2. The class given is functional.
The nature of data set [3]: Resistance index, ratio of IC50 for chloroquine-resistant Plasmodium falciparum W2 to IC50 for chloroquine-sensitive Plasmodium falciparum D10. The class given is functional.
The test system of data set [4] is Plasmodium falciparum. Nature of the data set: Antimalarial activity against chloroquine-sensitive Plasmodium falciparum D10 infected in human type A-positive red blood cells assessed as growth inhibition after 72 hrs by spectrophotometrically. The class given is functional. The following applies: D10, 72 h.
Data set [5] relates to Plasmodium falciparum. Nature of the data set: Antimalarial activity against chloroquine-resistant Plasmodium falciparum W2 infected in human type A-positive red blood cells assessed as growth inhibition after 72 hrs by spectrophotometrically. The following applies: W2, 72 h. The class given is functional, organism-based.
Data set [6] can be described thus: Resistance index, ratio of IC50 for chloroquine-resistant Plasmodium falciparum W2 to IC50 for chloroquine-sensitive Plasmodium falciparum 3D7. The class given is functional.
Data set [7] can be described thus: Cytotoxicity against HMEC1 assessed as cell growth inhibition after 72 hrs by MTT assay. Further details: species or system HMEC-1. The conditions noted are these: human, HMEC1 cells.
Data set [8] is described as follows: Selectivity index, ratio of CC50 for HMEC1 to IC50 for chloroquine-sensitive Plasmodium falciparum D10. The class given is functional.
A short description of data set [9]: Selectivity index, ratio of CC50 for HMEC1 to IC50 for chloroquine-resistant Plasmodium falciparum W2. The class given is functional.
A short description of data set [10]: Selectivity index, ratio of CC50 for HMEC1 to IC50 for chloroquine-sensitive Plasmodium falciparum 3D7. The class given is functional.
In data set [11] the test system is Mycobacterium tuberculosis. In words: Antimycobacterial activity against Mycobacterium tuberculosis. The class given is functional.
A further data set concerns the target Heme. In words: Binding affinity to heme assessed as inhibition of beta-hematin formation measured as compound IC50 to haemin molar ratio by BHIA assay.
Data set [12] deals with Plasmodium falciparum. In words: Antimalarial activity against Plasmodium falciparum K1. The class given is functional, organism-based.

Consider 26 compounds from ChEMBL document CHEMBL3351756, “Synthesis and evaluation of the antiplasmodial activity of novel indeno[2,1-c]quinoline derivatives” (Bioorg Med Chem, 2014).

Converted amounts (≈) assume the structure as drawn.

With `O=C(c1ccc2[nH]ccc2c1)N1CCN(C2c3ccccc3-c3ccccc32)CC1`, the IC50 amounted to 16900 nM with Plasmodium falciparum [1] and 21.6 µM in the data set with Plasmodium falciparum [2].

As to `O=C1c2ccccc2-c2c1c(NCCN1CCOCC1)nc1cc(Cl)ccc21`, the values for the Ratio IC50 in data set [3] and in [6] were 0.7 and 0.4, respectively. The IC50 in the data set with Plasmodium falciparum [4] is 3760 nM; in the data set on Plasmodium falciparum [5], 2550 nM; in the data set on Plasmodium falciparum [1] it was 6780 nM.

In the case of `CCCCN(CCCC)CC(O)c1cc(Cl)cc2c1-c1ccc(Cl)cc1/C2=C/c1ccc(Cl)cc1` (centres undefined) [LUMEFANTRINE], the IC50 with Plasmodium falciparum [4], with Plasmodium falciparum [5] and in the data set on Plasmodium falciparum [1] was 12 nM in each case.

On to `CN1CCN(CCNc2nc3ccc(Cl)cc3c3c2/C(=N/O)c2ccccc2-3)CC1`, for which the Ratio IC50 in data set [3] stood at 1; in data set [6], 0.8. Moreover, the CC50 at 72 h in data set [7] was 2.58 µM. Besides, the IC50 in the data set on Plasmodium falciparum [4] was 667 nM; in the data set with Plasmodium falciparum [5], 699 nM; in the data set on Plasmodium falciparum [1], 818 nM. For the same compound, the Ratio CC50/IC50 turned out to be 3.9 in data set [8], 3.7 in data set [9] and 3.2 in data set [10].

As to `O/N=C1\c2ccccc2-c2c1c(N1CCN(c3ccccn3)CC1)nc1ccc(Cl)cc21`, the Ratio IC50 in [3] amounted to 1. Further, the CC50 at 72 h in data set [7] was more than 38 µM. For the same compound, the values for the IC50 in the data set with Plasmodium falciparum [4] and in the data set on Plasmodium falciparum [5] were 6610 nM and 6810 nM, respectively. Moreover, the figures for the Ratio CC50/IC50 in data set [8] and in data set [9] were more than 5.8 and more than 5.6, respectively.

In turn, `c1ccc2c(c1)-c1ccccc1C2C[C@@H]1CCCN2CCCC[C@H]12` had an MIC in data set [11] of 20 µM (≈ 6.35 µg/mL). This counts as double-digit micromolar.

With `CN1CCN(CCNc2nc3cc(Cl)ccc3c3c2/C(=N/O)c2ccccc2-3)CC1`, in data set [3], the Ratio IC50 came out at 1.6. Besides, the CC50 at 72 h in data set [7] was 2.94 µM. For the same compound, the IC50 stood at 676 nM with Plasmodium falciparum [4] and 1060 nM in the data set on Plasmodium falciparum [5]. Further, the Ratio CC50/IC50 was found to be 4.4 in data set [8] and 2.8 in data set [9].

For the compound `CCC(=O)O/N=C1\c2ccccc2-c2c1c(N1CCN(c3ccccn3)CC1)nc1ccc(Cl)cc21`, in data set [3], the Ratio IC50 turned out to be 1. Moreover, the CC50 at 72 h in data set [7] is more than 35 µM. Further, the IC50 with Plasmodium falciparum [4] stood at 4050 nM; in the data set with Plasmodium falciparum [5], 4160 nM. The Ratio CC50/IC50 is more than 8.7 in data set [8] and more than 8.4 in [9].

As for `O/N=C1\c2ccccc2-c2c1c(NCCN1CCCCC1)nc1cc(Cl)ccc21`, the CC50 at 72 h in data set [7] was 2.34 µM. For the same compound, the IC50 in the data set on Plasmodium falciparum [5] was found to be 244 nM; with Plasmodium falciparum [1], 530 nM. The Ratio IC50 in data set [6] turned out to be 0.5. Moreover, the values for the Ratio CC50/IC50 in data set [9] and in data set [10] were 9.6 and 4.4, respectively.

Take `O=C1c2ccccc2-c2c1c(NCCN1CCCCC1)nc1cc(Cl)ccc21`: the IC50 in the data set on Plasmodium falciparum [5] is 1170 nM; with Plasmodium falciparum [1], 2340 nM. For the same compound, in data set [6], the Ratio IC50 was determined as 0.5.

`COc1nc2ccc(Cl)cc2c2c1/C(=N/NC(=N)N)c1ccccc1-2`: the Ratio IC50 in [3] stood at 1.2. For the same compound, the CC50 at 72 h in [7] amounted to 1.72 µM. For the same compound, the IC50 in the data set with Plasmodium falciparum [4] was determined as 360 nM; with Plasmodium falciparum [5] it was 432 nM. For the same compound, the values for the Ratio CC50/IC50 in [8] and in data set [9] were 4.8 and 4, respectively.

In turn, `C(=C(c1ccccc1)c1ccccc1)[C@@H]1CCCN2CCCC[C@H]12` gave an MIC in data set [11] of 3.9 µM (≈ 1.24 µg/mL).

Turning to `O/N=C1\c2ccccc2-c2c1c(NCCN1CCCCC1)nc1ccc(Cl)cc21`, the Ratio IC50 in data set [3] and in data set [6] was 0.3 throughout. Also, in data set [7], the CC50 at 72 h stood at 3.12 µM. Further, the IC50 in the data set on Plasmodium falciparum [4] was 850 nM; with Plasmodium falciparum [5], 255 nM; at Heme, more than 4 molar ratio; in the data set with Plasmodium falciparum [1] it was 843 nM. The Ratio CC50/IC50 in data set [8] stood at 3.7; in [9] it was 12; in [10] it was 3.7.

Consider `CN1CCN(CCNc2nc3cc(Cl)ccc3c3c2C(=O)c2ccccc2-3)CC1`, for which the Ratio IC50 in data set [3] is 1.1. Moreover, in data set [7], the CC50 at 72 h worked out at 3.12 µM. Also, the IC50 in the data set on Plasmodium falciparum [4] stood at 468 nM; in the data set with Plasmodium falciparum [5] it was 534 nM. For the same compound, the Ratio CC50/IC50 in data set [8] amounted to 6.7; in [9], 5.9.

With `CCN(CC)CCCC(C)Nc1ccnc2cc(Cl)ccc12` (centres undefined) [CHLOROQUINE], the CC50 at 72 h in [7] is more than 38 µM.

Consider `O/N=C1\c2ccccc2-c2c1c(-n1ccnc1)nc1ccc(Cl)cc21`, for which the IC50 in the data set with Plasmodium falciparum [4] and in the data set on Plasmodium falciparum [5] was more than 5000 nM each time.

With `Clc1ccc(C(=C[C@@H]2CCCN3CCCC[C@H]23)c2ccc(Cl)cc2)cc1`, the MIC in data set [11] amounted to 1.6 µM (≈ 0.618 µg/mL). This counts as single-digit micromolar.

As for `Clc1cccc(/C(=C\[C@@H]2CCCN3CCCC[C@H]23)c2ccccc2)c1`, the lowest concentration to inhibit growth in [11] (MIC) was 0.85 µM (≈ 0.299 µg/mL).

Turning to `Clc1ccc(/C(=C\[C@@H]2CCCN3CCCC[C@H]23)c2ccccc2)cc1Cl`, in the data set on Plasmodium falciparum [12], the IC50 was found to be 400 nM.

On to `O=C1c2ccccc2-c2c1c(NCCN1CCCCC1)nc1ccc(Cl)cc21`, for which the IC50 in the data set with Plasmodium falciparum [5] is 626 nM; in the data set on Plasmodium falciparum [1] it was 1710 nM. Also, the Ratio IC50 in data set [6] amounted to 0.4.

In data set [11], `C(=C1c2ccccc2-c2ccccc21)[C@@H]1CCCN2CCCC[C@H]12` displayed an MIC of 0.49 µM (≈ 0.155 µg/mL).

For the compound `COc1nc2ccc(Cl)cc2c2c1/C(=N/N1CCN(C)CC1)c1ccccc1-2`, the Ratio IC50 in data set [3] came to 0.7. The CC50 at 72 h in data set [7] worked out at 5.28 µM. Further, the IC50 with Plasmodium falciparum [4] was 4580 nM; with Plasmodium falciparum [5], 3160 nM. In addition, the values for the Ratio CC50/IC50 in data set [8] and in data set [9] were 1.2 and 1.7, respectively.

For `CN1CCN(c2nc3ccc(Cl)cc3c3c2C(=O)c2ccccc2-3)CC1`, the Ratio IC50 in [3] was 0.7. For the same compound, the CC50 at 72 h in data set [7] was determined as 4.03 µM. Also, the IC50 stood at 1640 nM in the data set on Plasmodium falciparum [4] and 1190 nM in the data set on Plasmodium falciparum [5]. Moreover, the Ratio CC50/IC50 in data set [8] came to 2.5; in data set [9] it was 3.4.

`CN1CCN(CCNc2nc3ccc(Cl)cc3c3c2C(=O)c2ccccc2-3)CC1`: the Ratio IC50 in data set [3] was determined as 0.8; in data set [6], 0.5. Also, the CC50 at 72 h in [7] is 1.94 µM. Also, the IC50 in the data set with Plasmodium falciparum [4] was 703 nM; in the data set on Plasmodium falciparum [5], 568 nM; in the data set on Plasmodium falciparum [1] it was 1030 nM. Moreover, the results for the Ratio CC50/IC50 in [8], in data set [9] and in data set [10] were 2.8, 3.4 and 1.9, respectively.

As to `O/N=C1\c2ccccc2-c2c1c(NCCN1CCOCC1)nc1cc(Cl)ccc21`, the Ratio IC50 in data set [3] was 1; in [6], 0.5. Besides, the IC50 amounted to 2840 nM in the data set with Plasmodium falciparum [4], 2730 nM in the data set on Plasmodium falciparum [5] and 5390 nM in the data set with Plasmodium falciparum [1].

Regarding `O=C1c2ccccc2-c2c1c(N1CCN(c3ccccn3)CC1)nc1ccc(Cl)cc21`, the Ratio IC50 in data set [3] came out at 1.1. Besides, the results for the IC50 with Plasmodium falciparum [4] and with Plasmodium falciparum [5] were 6080 nM and 6940 nM, respectively.
